Results reported in patent publication EP4656640A1, “IRAK4 DEGRADER AND USE THEREOF” (Shanghai Qilu Pharmaceutical Research and Development …, priority 2023, dated 2024).

Columns and labels:
IRAK4 = target: T1, IRAK4 (Homo sapiens, UniProt Q9NWZ3); assay type: cell-based; parameters: endogenous in cells; host or cells: OCI-LY3; conditions: read-out: OCI-LY3 DC50; OCI-LY3 cells
T1 sequence (Q9NWZ3 1-460): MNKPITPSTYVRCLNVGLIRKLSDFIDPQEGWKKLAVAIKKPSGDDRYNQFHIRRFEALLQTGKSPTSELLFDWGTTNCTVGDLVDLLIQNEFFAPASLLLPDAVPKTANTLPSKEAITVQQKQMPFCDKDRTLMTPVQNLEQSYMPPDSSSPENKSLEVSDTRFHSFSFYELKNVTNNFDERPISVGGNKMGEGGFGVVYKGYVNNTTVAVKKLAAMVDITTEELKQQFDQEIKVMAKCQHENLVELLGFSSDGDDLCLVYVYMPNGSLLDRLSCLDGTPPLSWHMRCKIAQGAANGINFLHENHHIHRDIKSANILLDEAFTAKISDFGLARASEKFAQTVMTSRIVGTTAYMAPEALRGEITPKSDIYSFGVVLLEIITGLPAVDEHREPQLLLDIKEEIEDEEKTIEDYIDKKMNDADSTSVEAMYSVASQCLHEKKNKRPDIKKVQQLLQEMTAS

inflammatory factors = assay: Inflammatory factors in plasma and peritoneal lavage fluid, IL-33-induced acute inflammation in mice (ELISA); assay type: in vivo, C57BL/6J mice; conditions: FIG. 1
Description: IL-33, a member of the IL-1 cytokine family, is the ligand for IL-1 receptor-like 1 or ST2. […] The effect of the compounds on inflammation in the IL-1R signaling pathway was investigated using an acute inflammatory model in mice induced by intraperitoneal injection of IL-33.
Preparation of IL-33 inducer: The mouse recombinant IL-33 powder was prepared as a 1 µg/µL stock solution. When using, 40 µL of the 1 µg/µL IL-33 solution was added to 3960 µL of PBS, mixed well by inversion, to obtain 4 mL of IL-33 solution with a concentration of 1 µg/100 µL, which was prepared freshly before use.

Cn1c(=O)n(C2CCC(=O)NC2=O)c2cccc(C#CCCN3CCC4(CC3)CC(n3cc(NC(=O)c5cnn6ccc(N7C[C@H]8C[C@@H]7CO8)nc56)c(C(F)F)n3)C4)c21 (stereo partly drawn) [Example 22]
DC50 (IRAK4): 1.3 nM | anti-inflammatory effect compared with KT474 (inflammatory factors; at comparable drug concentrations in plasma): superior | inflammatory factors in mouse plasma and peritoneal lavage fluid (inflammatory factors; mice, PO 15, 50 and 150 mg/kg, IL-33 induction): concentration-dependent reduction
